Source: PMC3961306, “Comparison of the Cancer Gene Targeting and Biochemical Selectivities of All Targeted Kinase Inhibitors Approved for Clinical Use” (PLoS ONE, 2014)

Key:
Test in all cases: Kinase profiling in a biochemical assay panel (mobility shift assays and ELISA), %-inhibition at 1 μM; selectivity entropy
[1] = target: panel of more than 300 wild-type and mutant kinases (313 kinase panel) (Homo sapiens, UniProt Q9NYA1)
[2] = target: T1, panel of more than 300 wild-type and mutant kinases (313 kinase panel) (Homo sapiens, UniProt P54760)
T1 sequence (P54760 16-987): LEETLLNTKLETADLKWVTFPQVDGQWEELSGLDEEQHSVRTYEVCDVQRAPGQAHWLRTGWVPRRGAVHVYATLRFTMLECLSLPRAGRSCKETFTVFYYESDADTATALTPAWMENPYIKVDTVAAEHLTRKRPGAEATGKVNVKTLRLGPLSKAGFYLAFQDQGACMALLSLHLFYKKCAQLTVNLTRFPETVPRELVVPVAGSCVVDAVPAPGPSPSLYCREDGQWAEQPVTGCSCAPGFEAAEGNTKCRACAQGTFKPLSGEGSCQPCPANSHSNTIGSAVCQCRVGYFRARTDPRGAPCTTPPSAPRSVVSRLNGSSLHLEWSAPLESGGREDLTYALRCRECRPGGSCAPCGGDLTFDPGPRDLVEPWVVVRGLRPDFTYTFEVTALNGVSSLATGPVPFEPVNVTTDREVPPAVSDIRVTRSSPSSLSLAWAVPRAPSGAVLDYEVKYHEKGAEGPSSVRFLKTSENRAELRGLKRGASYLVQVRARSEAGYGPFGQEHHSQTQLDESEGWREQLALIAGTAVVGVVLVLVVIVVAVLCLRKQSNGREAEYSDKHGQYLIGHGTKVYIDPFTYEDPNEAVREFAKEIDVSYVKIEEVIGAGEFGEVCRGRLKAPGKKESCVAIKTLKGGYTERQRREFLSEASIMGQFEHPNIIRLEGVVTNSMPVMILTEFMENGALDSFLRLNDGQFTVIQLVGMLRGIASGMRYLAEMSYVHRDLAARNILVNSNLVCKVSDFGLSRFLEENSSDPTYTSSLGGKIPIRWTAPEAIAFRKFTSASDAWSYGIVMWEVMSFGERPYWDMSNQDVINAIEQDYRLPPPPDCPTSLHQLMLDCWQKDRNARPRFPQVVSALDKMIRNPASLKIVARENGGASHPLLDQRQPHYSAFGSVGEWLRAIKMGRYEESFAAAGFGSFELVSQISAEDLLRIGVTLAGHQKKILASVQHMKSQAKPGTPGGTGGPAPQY

[3] = target: panel of more than 300 wild-type and mutant kinases (313 kinase panel) (Homo sapiens, UniProt P16234, V561D)
[4] = target: panel of more than 300 wild-type and mutant kinases (313 kinase panel) (Homo sapiens, UniProt O75116)
[5] = target: panel of more than 300 wild-type and mutant kinases (313 kinase panel) (Homo sapiens, UniProt Q16644)
[6] = target: panel of more than 300 wild-type and mutant kinases (313 kinase panel) (Homo sapiens, UniProt P30291)
[7] = target: panel of more than 300 wild-type and mutant kinases (313 kinase panel) (Homo sapiens, UniProt Q07912)
[8] = kinase MAPKAPK3, compound at 1 μM

panel of more than 300 wild-type and mutant kinases (313 kinase panel) (Homo sapiens, UniProt Q16644), sequence (Q16644 whole entry, change not shown): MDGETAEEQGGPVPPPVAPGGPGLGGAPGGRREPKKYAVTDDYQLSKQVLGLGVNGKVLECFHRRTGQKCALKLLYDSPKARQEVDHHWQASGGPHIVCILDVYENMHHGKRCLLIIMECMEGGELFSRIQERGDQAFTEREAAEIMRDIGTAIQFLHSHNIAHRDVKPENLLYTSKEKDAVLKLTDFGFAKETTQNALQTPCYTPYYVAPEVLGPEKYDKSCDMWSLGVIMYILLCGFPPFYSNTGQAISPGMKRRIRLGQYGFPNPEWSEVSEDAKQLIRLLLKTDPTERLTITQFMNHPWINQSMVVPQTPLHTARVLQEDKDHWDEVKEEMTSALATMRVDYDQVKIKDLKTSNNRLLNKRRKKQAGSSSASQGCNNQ
panel of more than 300 wild-type and mutant kinases (313 kinase panel) (Homo sapiens, UniProt Q07912), sequence (Q07912 whole entry, change not shown): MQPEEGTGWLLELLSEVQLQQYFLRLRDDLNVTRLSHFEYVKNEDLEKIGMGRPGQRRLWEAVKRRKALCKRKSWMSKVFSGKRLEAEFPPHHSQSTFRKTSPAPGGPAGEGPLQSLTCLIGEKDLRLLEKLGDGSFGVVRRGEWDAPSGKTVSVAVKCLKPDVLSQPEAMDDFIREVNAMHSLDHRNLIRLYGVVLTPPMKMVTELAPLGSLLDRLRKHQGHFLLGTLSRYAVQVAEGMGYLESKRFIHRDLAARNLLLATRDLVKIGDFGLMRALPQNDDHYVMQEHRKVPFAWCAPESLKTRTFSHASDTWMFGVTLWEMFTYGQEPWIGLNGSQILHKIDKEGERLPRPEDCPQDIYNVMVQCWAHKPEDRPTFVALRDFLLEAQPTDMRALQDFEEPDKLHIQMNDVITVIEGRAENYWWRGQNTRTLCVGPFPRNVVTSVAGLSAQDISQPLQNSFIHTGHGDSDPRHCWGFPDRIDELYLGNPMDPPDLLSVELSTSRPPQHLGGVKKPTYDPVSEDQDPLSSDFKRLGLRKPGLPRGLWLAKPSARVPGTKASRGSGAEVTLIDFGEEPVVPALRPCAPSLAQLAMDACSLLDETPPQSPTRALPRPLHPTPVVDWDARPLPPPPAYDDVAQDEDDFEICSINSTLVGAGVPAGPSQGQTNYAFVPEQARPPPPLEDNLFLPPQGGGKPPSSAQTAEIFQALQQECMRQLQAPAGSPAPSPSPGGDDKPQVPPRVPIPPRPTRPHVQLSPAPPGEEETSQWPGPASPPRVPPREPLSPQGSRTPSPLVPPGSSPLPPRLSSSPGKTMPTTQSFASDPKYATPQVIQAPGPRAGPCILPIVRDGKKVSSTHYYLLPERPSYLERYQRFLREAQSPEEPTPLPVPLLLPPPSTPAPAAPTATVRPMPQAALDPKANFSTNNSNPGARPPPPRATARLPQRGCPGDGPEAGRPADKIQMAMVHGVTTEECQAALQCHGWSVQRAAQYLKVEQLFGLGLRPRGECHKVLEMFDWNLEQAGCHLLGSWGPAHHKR
panel of more than 300 wild-type and mutant kinases (313 kinase panel) (Homo sapiens, UniProt P16234, V561D), sequence (P16234 24-1089 V561D): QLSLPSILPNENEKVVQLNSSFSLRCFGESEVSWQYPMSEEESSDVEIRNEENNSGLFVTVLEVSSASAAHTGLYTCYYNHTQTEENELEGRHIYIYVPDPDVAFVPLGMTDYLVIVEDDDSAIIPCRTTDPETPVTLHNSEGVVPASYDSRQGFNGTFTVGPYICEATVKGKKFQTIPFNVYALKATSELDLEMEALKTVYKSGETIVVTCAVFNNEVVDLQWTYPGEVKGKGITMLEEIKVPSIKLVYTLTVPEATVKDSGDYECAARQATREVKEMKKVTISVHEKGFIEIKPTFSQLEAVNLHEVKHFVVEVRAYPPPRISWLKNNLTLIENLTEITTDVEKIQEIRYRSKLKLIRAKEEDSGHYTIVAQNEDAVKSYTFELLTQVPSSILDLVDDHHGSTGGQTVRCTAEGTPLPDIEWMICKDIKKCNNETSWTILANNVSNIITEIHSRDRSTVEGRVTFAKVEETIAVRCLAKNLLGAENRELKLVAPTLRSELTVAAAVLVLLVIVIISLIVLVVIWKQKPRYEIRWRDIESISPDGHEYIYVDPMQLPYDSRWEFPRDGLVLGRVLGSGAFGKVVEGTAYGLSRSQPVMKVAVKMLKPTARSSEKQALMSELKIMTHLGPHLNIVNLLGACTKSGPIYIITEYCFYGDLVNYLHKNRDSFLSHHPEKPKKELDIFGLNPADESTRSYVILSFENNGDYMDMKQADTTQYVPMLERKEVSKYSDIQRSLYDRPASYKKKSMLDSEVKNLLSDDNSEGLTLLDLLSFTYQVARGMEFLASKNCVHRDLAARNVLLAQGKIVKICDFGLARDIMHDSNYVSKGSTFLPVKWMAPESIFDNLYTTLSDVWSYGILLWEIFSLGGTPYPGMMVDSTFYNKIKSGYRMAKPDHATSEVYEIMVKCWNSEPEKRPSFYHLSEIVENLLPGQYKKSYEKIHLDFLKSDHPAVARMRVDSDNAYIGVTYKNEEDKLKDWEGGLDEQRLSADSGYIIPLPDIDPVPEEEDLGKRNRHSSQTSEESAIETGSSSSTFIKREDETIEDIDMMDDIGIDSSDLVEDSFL
panel of more than 300 wild-type and mutant kinases (313 kinase panel) (Homo sapiens, UniProt P30291), sequence (P30291 whole entry, change not shown): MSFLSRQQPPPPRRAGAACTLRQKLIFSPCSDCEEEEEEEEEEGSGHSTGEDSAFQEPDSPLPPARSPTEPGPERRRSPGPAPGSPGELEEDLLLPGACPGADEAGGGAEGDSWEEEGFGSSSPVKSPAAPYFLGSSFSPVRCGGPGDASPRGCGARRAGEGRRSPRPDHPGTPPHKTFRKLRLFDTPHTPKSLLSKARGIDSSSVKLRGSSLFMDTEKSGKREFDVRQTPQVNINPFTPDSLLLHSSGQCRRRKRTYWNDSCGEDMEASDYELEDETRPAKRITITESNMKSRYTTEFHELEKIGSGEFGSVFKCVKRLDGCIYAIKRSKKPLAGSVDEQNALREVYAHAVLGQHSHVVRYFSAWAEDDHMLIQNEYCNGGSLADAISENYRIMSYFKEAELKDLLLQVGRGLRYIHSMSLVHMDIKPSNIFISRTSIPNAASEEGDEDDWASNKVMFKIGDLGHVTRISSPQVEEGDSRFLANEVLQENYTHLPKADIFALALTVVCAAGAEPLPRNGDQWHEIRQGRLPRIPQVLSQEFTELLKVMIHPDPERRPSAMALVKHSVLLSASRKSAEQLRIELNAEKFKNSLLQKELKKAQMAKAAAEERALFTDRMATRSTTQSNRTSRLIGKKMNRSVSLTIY

SMILES	%-inhibition of SPHK1 ([1]; kinase SPHK1, 1 μM)	%-inhibition of EPHB4 ([2]; kinase EPHB4, compound at 1 μM)	%-inhibition of PDGFRα(V561D) ([3]; kinase PDGFRα(V561D), 1 μM)	%-inhibition of ROCK2 ([4]; kinase ROCK2, 1 μM)	%-inhibition of MAPKAPK3 [5, 8]	%-inhibition of WEE1 ([6]; kinase WEE1, compound at 1 μM)	%-inhibition, ACK ([7]; kinase ACK, 1 μM compound)	%-inhibition of EPHB4 ([2]; 1 µM)	%-inhibition of PDGFRα(V561D) ([3]; 1 µM)	%-inhibition of ROCK2 ([4]; 1 µM)	%-inhibition of MAPKAPK3 ([5]; 1 µM)	%-inhibition of WEE1 ([6]; 1 µM)	%-inhibition of SPHK1 ([1]; 1 µM)	%-inhibition, ACK ([7]; 1 µM)
CN(C)C/C=C/C(=O)Nc1cc2c(Nc3ccc(F)c(Cl)c3)ncnc2cc1O[C@H]1CCOC1 [afatinib]	-2%	–	–	–	–	–	–	–	–	–	–	–	–	–
COc1cc(Nc2c(C#N)cnc3cc(OCCCN4CCN(C)CC4)c(OC)cc23)c(Cl)cc1Cl [bosutinib]	-23%	96%	64%	28%	-12%	98%	97%	–	–	–	–	–	–	–
COc1cc2nccc(Oc3ccc(NC(=O)C4(C(=O)Nc5ccc(F)cc5)CC4)cc3)c2cc1OC [cabozantinib]	-12%	96%	99%	15%	-9%	5.45%	30%	–	–	–	–	–	–	–
C[C@@H](Oc1cc(-c2cnn(C3CCNCC3)c2)cnc1N)c1c(Cl)ccc(F)c1Cl [crizotinib]	-14%	83%	30%	4.25%	-13%	12%	–	–	–	–	–	–	–	–
CC(C)(C)c1nc(-c2cccc(NS(=O)(=O)c3c(F)cccc3F)c2F)c(-c2ccnc(N)n2)s1 [dabrafenib]	-18%	–	51%	14%	-11%	0.651%	24%	–	–	–	–	–	–	–
C#Cc1cccc(Nc2ncnc3cc(OCCOC)c(OCCOC)cc23)c1 [erlotinib]	–	–	–	–	–	–	–	33%	56%	4.44%	0.621%	20%	-14%	37%
CO[C@H]1C[C@@H]2CC[C@@H](C)[C@@](O)(O2)C(=O)C(=O)N2CCCC[C@H]2C(=O)O[C@H]([C@H](C)C[C@@H]2CC[C@@H](OCCO)[C@H](OC)C2)CC(=O)[C@H](C)/C=C(\C)[C@@H](O)[C@@H](OC)C(=O)[C@H](C)C[C@H](C)/C=C/C=C/C=C/1C [everolimus]	-16%	-4.49%	-6%	-5.49%	-15%	7%	-4.62%	–	–	–	–	–	–	–
O=S(=O)(c1cccc2cnccc12)N1CCCNCC1 [fasudil]	-15%	-5.34%	9%	–	-14%	-0.258%	0.581%	–	–	–	–	–	–	–
CS(=O)(=O)CCNCc1ccc(-c2ccc3ncnc(Nc4ccc(OCc5cccc(F)c5)c(Cl)c4)c3c2)o1 [lapatinib]	-11%	-0.865%	–	–	-3.64%	8%	–	–	-1%	-2%	–	–	–	2.36%
Cc1cn(-c2cc(NC(=O)c3ccc(C)c(Nc4nccc(-c5cccnc5)n4)c3)cc(C(F)(F)F)c2)cn1 [nilotinib]	11%	–	–	-27%	2%	–	13%	91%	100%	–	–	3.74%	–	–
Cc1ccc(Nc2nccc(N(C)c3ccc4c(C)n(C)nc4c3)n2)cc1S(N)(=O)=O [pazopanib]	1.19%	16%	–	-0.78%	-6%	1%	13%	–	–	–	–	–	–	–
Cc1ccc(C(=O)Nc2ccc(CN3CCN(C)CC3)c(C(F)(F)F)c2)cc1C#Cc1cnc2cccnn12 [ponatinib]	-20%	101%	103%	63%	–	2.14%	99%	–	–	–	–	–	–	–
CNC(=O)c1cc(Oc2ccc(NC(=O)Nc3ccc(Cl)c(C(F)(F)F)c3)c(F)c2)ccn1 [regorafenib]	-14%	80%	101%	2.65%	-15%	4.42%	-3.35%	–	–	–	–	–	–	–
N#CC[C@H](C1CCCC1)n1cc(-c2ncnc3[nH]ccc23)cn1 [ruxolitinib]	-15%	0.569%	18%	87%	-13%	-1.32%	93%	–	–	–	–	–	–	–
CO[C@H]1C[C@@H]2CC[C@@H](C)[C@@](O)(O2)C(=O)C(=O)N2CCCC[C@H]2C(=O)O[C@H]([C@H](C)C[C@@H]2CC[C@@H](OC(=O)C(C)(CO)CO)[C@H](OC)C2)CC(=O)[C@H](C)/C=C(\C)[C@@H](O)[C@@H](OC)C(=O)[C@H](C)C[C@H](C)/C=C/C=C/C=C/1C [temsirolimus]	-14%	-9%	-4%	-5.66%	-11%	4.25%	-8%	–	–	–	–	–	–	–
CC(=O)Nc1cccc(-n2c(=O)n(C3CC3)c(=O)c3c(Nc4ccc(I)cc4F)n(C)c(=O)c(C)c32)c1 [trametinib]	-11%	-3.38%	2.22%	3%	-9%	9%	-5.39%	–	–	–	–	–	–	–
COc1cc2c(Nc3ccc(Br)cc3F)ncnc2cc1OCC1CCN(C)CC1 [vandetanib]	-13%	–	100%	-0.708%	-2%	1.73%	24%	–	–	–	–	–	–	–
